“Also recorded” adds a separate entry of the source. Read-outs that look alike come from different tables or passages of the source.
How the values were obtained:
[1] = tested on: S37 murine sarcoma cell line; assay: Photoinduced (combined) cytotoxicity, MTT assay after irradiation; format: cell-based; details: S37 cells; for IC50: Mus musculus, S37, light or radiation study, 4 h PS incubation
Protocol: To estimate the combined effect (photoinduced and chemocytotoxic) of compound (4) and platinum complex (7), a two-step experiment was designed: incubation of cells with PS for 4 h and irradiation and subsequent incubation for 48 or 72 h followed by estimation of cell survival by the MTT assay.
The S37 murine sarcoma cell line (collection of the N.N. Blokhin Research Institute of Oncology) was used to estimate photoinduced activity and cytotoxicity.
Cells were cultured in DMEM medium (PanEco, Russia) with addition of 2 mM L-glutamine (PanEco, Moscow, Russia) and 10% fetal calf blood serum (FCS) (Corning, New York, NY, USA) in 25 cm^2 culture vials (Corning, USA) at 37 °C in a humid atmosphere containing 5% carbon dioxide. Upon passivation, the Versene solution (PanEco, Russia) was used to remove the cells from the substrate. For in vitro studies, cells of the 3rd and 4th passages were used with an optimal seeding concentration of 6 × 10^4 cells/mL.
The concentrations of the solutions obtained were 0.6 mg/mL for compound (4) and 0.1 mg/mL for compound (7). All the volumes obtained were filtered through a Millipore membrane filter with a pore size of 0.22 μm. Next, the samples were diluted in 24-well plates (Corning, USA) on the cell-culturing medium. The final concentration of the substances ranged from 32 ng/mL to 20 μg/mL.
To perform the experiments, S37 tumor cells were seeded into 96-well plates in the amount of 6 × 10^3 cells per well in a 100 μL volume. Exposure was performed in the exponential phase of cell growth 24 h after seeding. Solutions of compounds in the complete culture medium were added to the wells at final concentrations of 32 ng/mL to 20 μg/mL, in triplicate. The time of cell incubation with compounds before irradiation was 4 h. The culture medium was used as the blank. Light exposure was performed with a halogen lamp through a KS-10 broadband filter (λ > 620 nm). The light dose was 10 J/cm^2. After light exposure, the plates with cells were placed in a CO2 incubator for 24, 48, or 72 h.
Cell survival was estimated using the colorimetric MTT test (24 and 72 h after exposure), which is based on the ability of dehydrogenases in living cells to convert yellow water-soluble 3-(4-5-dimethyl-[…]-2)-2,5-diphenyltetrazolium bromide to blue crystals of formazan, whose amount is measured spectrophotometrically.
Before the test, cells were washed from cytotoxic agents. Then, 0.5% solution of 3-(4,5-dimethylthiazolyl-2)-2,5-diphenyltetrazolium bromide was added to the wells and the system was incubated for 3 h under standard conditions. After incubation, the medium with the MTT-reagent was removed and formazan crystals were dissolved for 10 min with dimethyl sulfoxide. Optical density was measured on a Multiscan FC multichannel plate photometer (Thermo scientific) at 550 nm.
The growth inhibition (GI) of cells in a culture was calculated using the following formula:GI(%) = [ODk − ODo/ODk)] × 100%, where ODo is the optical density of formazan in the test wells and ODk is the optical density of formazan in the control wells.
Quantitative parameters were calculated using the results of three independent tests.

[2] = UV-Vis absorption and fluorescence spectra; format: physicochemical; details: excitation at 550 nm, dichloromethane
Protocol: Because the pigments noted above are photoactive compounds, it was important to determine the effect of the sulfur atom on their spectral characteristics.
Absorption and fluorescence spectra were recorded on Shimadzu UV1800 UV/VIS (Shimadzu, Duisburg, Germany) and Shimadzu RF-5301 (Shimadzu, Duisburg, Germany) spectrophotometers in quartz cells (0.4 × 1.0 cm) with an optical path length of 1 cm (spectral slit width 1 nm), using dichloromethane, acetone, and water as the solvents. Absorption spectra were recorded in the range of 350–750 nm. Fluorescence spectra were recorded in the range of 600–800 nm (excitation wavelength 550 nm), using dichloromethane, acetone, and water as the solvents. The fluorescence quantum yield was determined by the relative method. A solution of purpurin-18 in toluene was used as the standard. Both ^1H and ^13C NMR spectra were recorded on a Bruker DPX 300 spectrometer (Bruker, Alzenau, Germany). NMR samples were prepared in d6-acetone and CDCl3. Matrix-assisted laser desorption/ionization (MALDI) mass spectra were recorded on a Bruker Ultraflex TOF/TOF spectrometer (Bruker, Alzenau, Germany), with 2,5-dihydroxybenzoic acid as the matrix. Elemental analysis was performed on a Vario Micro Cube analyzer (Elementar, Berlin, Germany).

[3] = tested on: S37 murine sarcoma cell line; assay: Dark cytotoxicity, MTT assay; format: cell-based; details: S37 sarcoma cells, 72 h incubation, dark
Protocol: (§2) To estimate cytotoxicity, cells were incubated with the substances for 72 h under dark conditions in a CO2 incubator.
(§3) Cell survival was estimated using the colorimetric MTT test (24 and 72 h after exposure), which is based on the ability of dehydrogenases in living cells to convert yellow water-soluble 3-(4-5-dimethyl-tetrazolyl-2)-2,5-diphenyltetrazolium bromide to blue crystals of formazan, whose amount is measured spectrophotometrically.

[4] = Dark cytotoxicity, MTT assay; format: cell-based, murine; details: mouse, S37 murine sarcoma cells; S37 cells; 72 h incubation of compounds with cells, no irradiation, MTT
Protocol: as §2, §3

[5] = Chemical stability in lysate of S37 sarcoma cells (Qy band intensity); format: physicochemical; details: Cell lysate S37 (pH = 7.8)
Protocol: (§1) The chemical stability of compounds 4 and 7 was also studied in the lysate of S37 sarcoma cells (pH = 7.8), as well as in the cell culture medium at different pH values. The stability was assessed by the change in the intensity of the Qy bands as described above.

[6] = Chemical stability in cell culture medium at different pH (Qy band intensity); format: physicochemical
Protocol: as §1

## C=Cc1c(C)c2cc3nc(c4c5[nH]c(cc6nc(cc1[nH]2)C(C)=C6CC)c(C)c5C(=O)C4)[C@@H](CCC(=O)OC)[C@@H]3C [Compound 4, pyropheophorbide a methyl ester, reference compound]
[1]; irradiation at 10 J/cm^2, MTT after 24 h, read-out: IC50, Photoinduced cytotoxicity
  IC50: 4.198 ± 0.013 µM
[1]; irradiation at 10 J/cm^2, MTT after 48 h, read-out: IC50, Combined cytotoxicity
  IC50: 4.076 ± 0.011 µM
[1]; irradiation at 10 J/cm^2, MTT after 72 h, read-out: IC50, Combined cytotoxicity
  IC50: 4.023 ± 0.013 µM
[1]; versus platinum complex 7
  photoinduced activity, times lower than that of the platinum complex: 8.8 times
[2]
  fluorescence maximum: 684 nm
[3]
  cytotoxic effect without light irradiation (in words): no cytotoxic effect on cells; also recorded: does not have a pronounced cytotoxicity
[4]
  IC50 at 72 h: > 36.4 µM
[5]; 0 min
  Content, %: 100%
  Intensity at 666 nm: 0.9538
[5]; 4 h
  Content, %: 91%
  Intensity at 666 nm: 0.8679
[5]; 24 h
  Content, %: 82%
  Intensity at 666 nm: 0.7821
[5]; 72 h
  Content, %: 76%
  Intensity at 666 nm: 0.7249
[6]; pH 4, 0 min
  Content, %: 100%
  Intensity at 666 nm: 0.9538
[6]; pH 4, 4 h
  Content, %: 70%
  Intensity at 666 nm: 0.6677
[6]; pH 4, 24 h
  Content, %: 60%
  Intensity at 666 nm: 0.5723
[6]; pH 4, 72 h
  Content, %: 58%
  Intensity at 666 nm: 0.5532
[6]; pH 7, 0 min
  Content, %: 100%
  Intensity at 666 nm: 0.9538
[6]; pH 7, 4 h
  Content, %: 93%
  Intensity at 666 nm: 0.887
[6]; pH 7, 24 h
  Content, %: 87%
  Intensity at 666 nm: 0.8298
[6]; pH 7, 72 h
  Content, %: 79%
  Intensity at 666 nm: 0.7535
[6]; pH 9, 0 min
  Content, %: 100%
  Intensity at 666 nm: 0.9538
[6]; pH 9, 4 h
  Content, %: 85%
  Intensity at 666 nm: 0.8107
[6]; pH 9, 24 h
  Content, %: 78%
  Intensity at 666 nm: 0.744
[6]; pH 9, 72 h
  Intensity at 666 nm: 0.7058

Source: paper PMC10222512, “Thiocarbonyl Derivatives of Natural Chlorins: Synthesis Using Lawesson’s Reagent and a Study of Their Properties” (Molecules, 2023)
